Test results published in US10405547B2, “Substituted cyclic amides as herbicides” (FMC Corporation, priority 2015, dated 2019).

Columns and labels:
Type in all cases: in vivo
[1] = system: barnyardgrass (Echinochloa crus-galli); assay: Test A preemergence, barnyardgrass; conditions: 0 to 100 scale (0 no effect, 100 complete control)
Method in brief: (§1)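 Greenhouse assay; ~10 d; visual injury vs untreated control, scored 0 = no effect through 100 = complete control. Post-emergent seedlings at one–two leaves; pre-emergent seeds in loam/sand given a directed soil spray.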

[2] = system: kochia (Kochia scoparia); assay: Test A preemergence, kochia; conditions: 0 to 100 scale (0 no effect, 100 complete control)
Method in brief: as §1

[3] = system: ragweed (common ragweed, Ambrosia elatior); assay: Test A preemergence, ragweed; conditions: 0 to 100 scale (0 no effect, 100 complete control)
Method in brief: as §1

[4] = system: ryegrass, Italian (Lolium multiflorum); assay: Test A preemergence, Italian ryegrass; conditions: 0 to 100 scale (0 no effect, 100 complete control)
Method in brief: as §1

[5] = system: foxtail, giant (Setaria faberii); assay: Test A preemergence, giant foxtail; conditions: 0 to 100 scale (0 no effect, 100 complete control)
Method in brief: as §1

[6] = system: pigweed (Amaranthus retroflexus); assay: Test A preemergence, pigweed; conditions: 0 to 100 scale (0 no effect, 100 complete control)
Method in brief: as §1

[7] = system: barnyardgrass (Echinochloa crus-galli); assay: Test A postemergence, barnyardgrass; conditions: visual injury, 0 to 100 scale (0 no effect, 100 complete control), approximately 10 days
Method in brief: as §1

[8] = system: kochia (Kochia scoparia); assay: Test A postemergence, kochia; conditions: visual injury, 0 to 100 scale (0 no effect, 100 complete control), approximately 10 days
Method in brief: as §1

[9] = system: ragweed (common ragweed, Ambrosia elatior); assay: Test A postemergence, ragweed; conditions: visual injury, 0 to 100 scale (0 no effect, 100 complete control), approximately 10 days
Method in brief: as §1

[10] = system: ryegrass, Italian (Lolium multiflorum); assay: Test A postemergence, Italian ryegrass; conditions: visual injury, 0 to 100 scale (0 no effect, 100 complete control), approximately 10 days
Method in brief: as §1

[11] = system: foxtail, giant (Setaria faberii); assay: Test A postemergence, giant foxtail; conditions: visual injury, 0 to 100 scale (0 no effect, 100 complete control), approximately 10 days
Method in brief: as §1

[12] = system: pigweed (Amaranthus retroflexus); assay: Test A postemergence, pigweed; conditions: visual injury, 0 to 100 scale (0 no effect, 100 complete control), approximately 10 days
Method in brief: as §1

[13] = system: blackgrass (Alopecurus myosuroides); assay: Test A postemergence, blackgrass; conditions: visual injury, 0 to 100 scale (0 no effect, 100 complete control), approximately 10 days
Method in brief: as §1

[14] = system: galium (catchweed bedstraw, Galium aparine); assay: Test A postemergence, galium; conditions: visual injury, 0 to 100 scale (0 no effect, 100 complete control), approximately 10 days
Method in brief: as §1

[15] = system: wheat (Triticum aestivum); assay: Test A postemergence, wheat; conditions: visual injury, 0 to 100 scale (0 no effect, 100 complete control), approximately 10 days
Method in brief: as §1

[16] = system: corn (Zea mays); assay: Test A postemergence, corn; conditions: visual injury, 0 to 100 scale (0 no effect, 100 complete control), approximately 10 days
Method in brief: as §1

[17] = system: rice (Oryza sativa); assay: Test B flooded paddy test, rice; conditions: applied to paddy water, visual rating after 13 to 15 days, scale 0 (no effect) to 100 (complete control)
Method in brief: (§2)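 Greenhouse pots flooded to 3 cm above soil at time of treatment received compound via the water, which stayed at that level.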

[18] = system: sedge, umbrella (small-flower umbrella sedge, Cyperus difformis); assay: Test B flooded paddy test, umbrella sedge; conditions: applied to paddy water, visual rating after 13 to 15 days, scale 0 (no effect) to 100 (complete control)
Method in brief: as §2

[19] = system: ducksalad (Heteranthera limosa); assay: Test B flooded paddy test, ducksalad; conditions: applied to paddy water, visual rating after 13 to 15 days, scale 0 (no effect) to 100 (complete control)
Method in brief: as §2

[20] = system: barnyardgrass (Echinochloa crus-galli); assay: Test B flooded paddy test, barnyardgrass; conditions: applied to paddy water, visual rating after 13 to 15 days, scale 0 (no effect) to 100 (complete control)
Method in brief: as §2

Compound	Plant response rating, Barnyardgrass ([1]; 125 g ai/ha)	Plant response rating, Barnyardgrass ([1]; 500 g ai/ha)	Plant response rating, Kochia ([2]; 125 g ai/ha)	Plant response rating, Kochia ([2]; 500 g ai/ha)	Plant response rating, Ragweed ([3]; 125 g ai/ha)	Plant response rating, Ragweed ([3]; 500 g ai/ha)	Plant response rating, Ryegrass, Italian ([4]; 125 g ai/ha)	Plant response rating, Ryegrass, Italian ([4]; 500 g ai/ha)	Plant response rating, Foxtail, Giant ([5]; 125 g ai/ha)	Plant response rating, Foxtail, Giant ([5]; 500 g ai/ha)	Plant response rating, Pigweed ([6]; 125 g ai/ha)	Plant response rating, Pigweed ([6]; 500 g ai/ha)	Plant response rating, Barnyardgrass ([7]; 125 g ai/ha)	Plant response rating, Barnyardgrass ([7]; 500 g ai/ha)	Plant response rating, Kochia ([8]; 125 g ai/ha)	Plant response rating, Kochia ([8]; 500 g ai/ha)	Plant response rating, Ragweed ([9]; 125 g ai/ha)	Plant response rating, Ragweed ([9]; 500 g ai/ha)	Plant response rating, Ryegrass, Italian ([10]; 125 g ai/ha)	Plant response rating, Ryegrass, Italian ([10]; 500 g ai/ha)	further results
O=C1NCC(c2cccc(OCc3ccco3)c2)C1C(=O)Nc1cccc(F)c1F (stereo not drawn) [Compound 9]	10	70	0	0	0	0	0	0	10	70	0	0	30	60	0	0	0	0	0	0	Plant response rating, Foxtail, Giant ([11]; 125 g ai/ha): 0; Plant response rating, Foxtail, Giant ([11]; 500 g ai/ha): 50; Plant response rating, Pigweed ([12]; 125 g ai/ha): 0; Plant response rating, Pigweed ([12]; 500 g ai/ha): 0; Plant response rating, Blackgrass ([13]; 125 g ai/ha): 0; Plant response rating, Blackgrass ([13]; 500 g ai/ha): 0; Plant response rating, Galium ([14]; 125 g ai/ha): 0; Plant response rating, Galium ([14]; 500 g ai/ha): 0; Plant response rating, Wheat ([15]; 125 g ai/ha): 0; Plant response rating, Wheat ([15]; 500 g ai/ha): 0; Plant response rating, Corn ([16]; 125 g ai/ha): 0; Plant response rating, Corn ([16]; 500 g ai/ha): 20; Plant response rating, Rice (Flood) ([17]; 250 g ai/ha): 0; Plant response rating, Sedge, Umbrella (Flood) ([18]; 250 g ai/ha): 30; Plant response rating, Ducksalad (Flood) ([19]; 250 g ai/ha): 30; Plant response rating, Barnyardgrass (Flood) ([20]; 250 g ai/ha): 0
O=C1NCC(c2cccc(OCc3ccco3)c2)C1C(=O)Nc1ccccc1C(F)(F)F (stereo not drawn) [Compound 2]	0	30	0	0	0	0	0	0	0	20	0	0	0	0	0	0	0	0	0	10	Plant response rating, Foxtail, Giant ([11]; 125 g ai/ha): 0; Plant response rating, Foxtail, Giant ([11]; 500 g ai/ha): 10; Plant response rating, Pigweed ([12]; 125 g ai/ha): 0; Plant response rating, Pigweed ([12]; 500 g ai/ha): 0; Plant response rating, Blackgrass ([13]; 125 g ai/ha): 0; Plant response rating, Blackgrass ([13]; 500 g ai/ha): 0; Plant response rating, Galium ([14]; 125 g ai/ha): 0; Plant response rating, Galium ([14]; 500 g ai/ha): 0; Plant response rating, Wheat ([15]; 125 g ai/ha): 0; Plant response rating, Wheat ([15]; 500 g ai/ha): 0; Plant response rating, Corn ([16]; 125 g ai/ha): 0; Plant response rating, Corn ([16]; 500 g ai/ha): 0; Plant response rating, Rice (Flood) ([17]; 250 g ai/ha): 0; Plant response rating, Sedge, Umbrella (Flood) ([18]; 250 g ai/ha): 0; Plant response rating, Ducksalad (Flood) ([19]; 250 g ai/ha): 0; Plant response rating, Barnyardgrass (Flood) ([20]; 250 g ai/ha): 0
O=C1NCC(c2cccc(OCc3ccccc3)c2)C1C(=O)Nc1ccc(F)cc1F (stereo not drawn) [Compound 64]	0	0	0	0	0	0	0	0	0	0	0	0	0	0	0	0	0	0	0	0	Plant response rating, Foxtail, Giant ([11]; 125 g ai/ha): 0; Plant response rating, Foxtail, Giant ([11]; 500 g ai/ha): 0; Plant response rating, Pigweed ([12]; 125 g ai/ha): 0; Plant response rating, Pigweed ([12]; 500 g ai/ha): 0; Plant response rating, Blackgrass ([13]; 125 g ai/ha): 0; Plant response rating, Blackgrass ([13]; 500 g ai/ha): 0; Plant response rating, Galium ([14]; 125 g ai/ha): 0; Plant response rating, Galium ([14]; 500 g ai/ha): 0; Plant response rating, Wheat ([15]; 125 g ai/ha): 0; Plant response rating, Wheat ([15]; 500 g ai/ha): 0; Plant response rating, Corn ([16]; 125 g ai/ha): 0; Plant response rating, Corn ([16]; 500 g ai/ha): 0; Plant response rating, Rice (Flood) ([17]; 500 g ai/ha): 0; Plant response rating, Sedge, Umbrella (Flood) ([18]; 500 g ai/ha): 0; Plant response rating, Ducksalad (Flood) ([19]; 500 g ai/ha): 35; Plant response rating, Barnyardgrass (Flood) ([20]; 500 g ai/ha): 0
O=C1NCC(c2cccc(Oc3ccc(F)cn3)c2)C1C(=O)Nc1ccccc1F (single isomer, unassigned) [Compound 49]	90	90	20	70	0	40	40	70	90	90	0	20	80	90	0	0	0	40	0	50	Plant response rating, Foxtail, Giant ([11]; 125 g ai/ha): 70; Plant response rating, Foxtail, Giant ([11]; 500 g ai/ha): 90; Plant response rating, Pigweed ([12]; 125 g ai/ha): 0; Plant response rating, Pigweed ([12]; 500 g ai/ha): 20; Plant response rating, Blackgrass ([13]; 125 g ai/ha): 0; Plant response rating, Blackgrass ([13]; 500 g ai/ha): 40; Plant response rating, Galium ([14]; 125 g ai/ha): 20; Plant response rating, Galium ([14]; 500 g ai/ha): 70; Plant response rating, Wheat ([15]; 125 g ai/ha): 0; Plant response rating, Wheat ([15]; 500 g ai/ha): 40; Plant response rating, Corn ([16]; 125 g ai/ha): 30; Plant response rating, Corn ([16]; 500 g ai/ha): 40; Plant response rating, Rice (Flood) ([17]; 250 g ai/ha): 0; Plant response rating, Sedge, Umbrella (Flood) ([18]; 250 g ai/ha): 0; Plant response rating, Ducksalad (Flood) ([19]; 250 g ai/ha): 100; Plant response rating, Barnyardgrass (Flood) ([20]; 250 g ai/ha): 0
